Measured values: patent publication US20040266882A1 (priority 2001, published 2004)
Where two headings read alike, the source gives them in different places.

Assays:
C-26 cells = assay: Solid tumor model, C-26 cells injected into footpad; format: in vivo, mice; conditions: for solid tumor volume with time, single agent: fluoxetine 0.04 mg/kg daily orally alone, or MMC or DOX 5 mg/kg i.v. alone
Protocol: In the solid tumor model, C-26 cells were injected into the animal's right-hind footpad.
In the solid tumor model, Mitomycin C (MMC) and Doxorubicin (DOX), were tested separately, each at a dose of 5 mg/kg body.

[1] = test system: PANC-1, C6, MCF-7, U2OS and HT1080; conditions: 48 hours; for reduction in cell survival, drug alone: non-resistant cell lines, 0.1 μg/ml DOX or 0.3 μg/ml VIN alone
Protocol: Studies similar in general to those outlined in the previous section, were conducted with five cell lines selected for this task (PANC-1, C6, MCF-7, U2OS and HT1080), increasing the length of the experiment to 48 hours. The studies were done with DOX and with Vinblastine (VIN or VLB).

B16F10 cells = conditions: for lung metastatic burden (lung weight increase, number of lung metastasis), single agent: fluoxetine 0.04 mg/kg daily orally alone, or Doxorubicin 10 mg/kg i.v. alone
C6 cells [2] = test system: C6 cells; parameters: effect on cell survival: dose or concentration left out as unconfirmed; conditions: 24 hours; for enhancement in cell death by the combination treatment: vs drug alone
[3] = daily dose; cited from earlier work
fibrosarcoma cells = conditions: doses equivalent to 20-40 mg/M^2; cited from earlier work
[4] = test system: concavalin A-stimulated normal lymphocytes; conditions: doses equivalent to 20-40 mg/M^2; cited from earlier work
PANC-1 cells = test system: PANC-1 cells; parameters: effect on cell survival: dose or concentration left out as unconfirmed; conditions: 24 hours; for enhancement in cell death by the combination treatment: vs drug alone
C6 cells [5] = conditions: cells loaded with 0.1 μg/ml DOX alone
Protocol: Cells were grown in monolayers as described above. […] Control cells received media alone.

[6] = […] μM fluoxetine + 0.1 μg/ml Doxorubicin
[7] = […] μM fluoxetine + 30 μg/ml Mitomycin C

SMILES: CO[C@@]12[C@H](COC(N)=O)C3=C(C(=O)C(C)=C(N)C3=O)N1C[C@@H]1N[C@@H]12 [Mitomycin C]
- solid tumor volume with time, single agent (C-26 cells): increases fast and exponentially

SMILES: CC[C@]1(O)C[C@@H]2CN(CCc3c([nH]c4ccccc34)[C@@](C(=O)OC)(c3cc4c(cc3OC)N(C)[C@H]3[C@@](O)(C(=O)OC)[C@H](OC(C)=O)[C@]5(CC)C=CCN6CC[C@]43[C@@H]65)C2)C1 [Vinblastine]
- reduction in cell survival, drug alone [1]: 50%

SMILES: CNCCC(Oc1ccc(C(F)(F)F)cc1)c1ccccc1 (stereo not shown) [fluoxetine, N-methyl 3-(p-trifluoromethylphenoxy)-3-phenylpropylamine]
- toxicity to the cells, fluoxetine alone ([1]; fluoxetine alone, 0-15 μM): not toxic
- prolongation of survival (C-26 cells; DOX+CS vs saline, CS alone and DOX alone): 3 fold
- prolongation of survival (C-26 cells; MMC+CS vs saline, CS alone and MMC alone): 2 fold
- solid tumor size and growth, combination therapy (C-26 cells; fluoxetine 0.04 mg/kg daily orally + DOX 5 mg/kg i.v.): tumors are substantially smaller
- solid tumor size and growth, combination therapy (C-26 cells; fluoxetine 0.04 mg/kg daily orally + MMC 5 mg/kg i.v.): tumors are substantially smaller
- solid tumor volume with time, single agent (C-26 cells): increases fast and exponentially
- survival, single agent (B16F10 cells; CS alone or CT alone, 75-days experiment): died rather early
- lung metastatic burden, combination treatment (B16F10 cells; fluoxetine 0.04 mg/kg daily orally + Doxorubicin 10 mg/kg i.v.): substantial reduction
- lung metastatic burden (lung weight increase, number of lung metastasis), single agent (B16F10 cells): highest metastatic burden
- survival, combination treatment (B16F10 cells; fluoxetine + Doxorubicin, 75-days experiment): long survivors
- enhancement in cell death by the combination treatment (C6 cells [2]; [6]): 3-4 fold
- enhancement in cell death by the combination treatment (C6 cells [2]; [7]): 3-4 fold
- effect on cell survival (C6 cells [2]; […] μM fluoxetine alone): does not affect cell survival at all
- known, acceptable safety limit [3]: 80 mg/M^2
- effect on proliferation of fibrosarcoma cells (fibrosarcoma cells): promotes the proliferation
- effect on proliferation of concavalin A-stimulated normal lymphocytes [4]: inhibits the proliferation
- enhancement in cell death by the combination treatment (PANC-1 cells; [6]): 3-4 fold
- enhancement in cell death by the combination treatment (PANC-1 cells; [7]): 3-4 fold
- effect on cell survival (PANC-1 cells; […] μM fluoxetine alone): does not affect cell survival at all

SMILES: COc1cccc2c1C(=O)c1c(O)c3c(c(O)c1C2=O)C[C@@](O)(C(=O)CO)C[C@@H]3O[C@H]1C[C@H](N)[C@H](O)[C@H](C)O1 [Doxorubicin]
- reduction in cell survival, drug alone [1]: 50%
- solid tumor volume with time, single agent (C-26 cells): increases fast and exponentially
- lung metastatic burden (lung weight increase, number of lung metastasis), single agent (B16F10 cells): only a mild reduction
- depletion of intracellular DOX at 2 hours (C6 cells [5]): 100%
